According to US20090192158A1, “Methods for Treating or Preventing Neoplasias” (priority 2006, published 2009):

Assays:
human mPGES-1 = target: T1, human mPGES-1 (Homo sapiens, UniProt O14684); assay: Microsomal prostaglandin E synthase assay; type: biochemical; settings: microsomes of CHO-K1 cells transfected with human mPGES-1; PGE2 by EIA; average of at least n=3; read-out: h-CHO (nM); potency expressed as IC50
T1 construct: made in house; host or cells: CHO-K1 cells, transient transfection; microsomal fraction
T1 sequence (O14684 1-152): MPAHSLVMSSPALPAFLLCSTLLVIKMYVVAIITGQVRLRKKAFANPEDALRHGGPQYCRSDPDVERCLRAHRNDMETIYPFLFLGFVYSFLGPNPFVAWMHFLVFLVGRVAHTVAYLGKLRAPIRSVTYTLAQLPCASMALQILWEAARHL
Procedure: Compounds are tested as inhibitors of prostaglandin E synthase activity in microsomal prostaglandin E synthases, whole cell and in vivo assays. These assays measure prostaglandin E2 (PGE2) synthesis using either Enzymatic Immunoassay (EIA) or mass spectrometry. Cells used for microsomal preparation are CHO-K1 cells transiently transfected with plasmids encoding the human mPGES-1 cDNA. Cells used for cell-based experiments are human A549 (which express human mPGES-1). Guinea pigs are used to test the activity of selected compounds in vivo. In all these assays, 100% activity is defined as the PGE2 production in vehicle-treated samples.
Prostaglandin E synthase microsomal fractions are prepared from CHO-K1 cells transiently transfected with plasmid encoding the human mPGES-1 cDNA. […] The enzyme reactions are performed in 200 mM KPi pH 7.0, 2 mM EDTA and 2.5 mM GSH-reduced form. […] The reaction is terminated by the addition of SnCl2 in 1N HCl (1 mg/ml final).

[1] = tested on: human colon tumor cell line; settings: cited from earlier work

Row | SMILES | IC50 (human mPGES-1) [nM] | PGE2 formation [1] | cell proliferation [1]
1 | N#Cc1cccc(C#N)c1-c1nc2c3ccc(Br)cc3c3cc(Cl)ccc3c2[nH]1 [Example 36, 2-(6-bromo-9-chloro-1H-phenanthro[9,10-d]imidazol-2-yl)isophthalonitrile] | 1.2 |  | 
2 | CC(C)(O)c1ccc2c(c1)c1cc(Br)ccc1c1nc(-c3c(C#N)cccc3C#N)[nH]c21 [Example 87, 2-[6-bromo-9-(1-hydroxy-1-methylethyl)-1H-phenanthro[9,10-d]imidazol-2-yl]isophthalonitrile] | 1.9 |  | 
3 | CC(C)(O)C#Cc1ccc2c(c1)c1cc(Cl)ccc1c1[nH]c(-c3c(F)cccc3C#N)nc21 [Example 14, 2-[9-chloro-6-(3-hydroxy-3-methylbutyl-1-yn-1-yl)-1H-phenanthro[9,10-d]imidazol-2-yl]-3-fluorobenzonitrile] | 1.8 |  | 
4 | CC(C)(O)c1ccc2c(c1)c1cc(C#CC3CC3)ccc1c1nc(-c3c(C#N)cccc3C#N)[nH]c21 [Example 88, 2-[6-(cyclopropylethynyl)-9-(1-hydroxy-1-methylethyl)-1H-phenanthro[9,10-d]imidazol-2-yl]isophthalonitrile] | 1.3 |  | 
5 | CC(C)c1ccc2c(c1)c(SC(C)(C)C)c(CC(C)(C)C(=O)O)n2Cc1ccc(Cl)cc1 [MK-886] |  | inhibits | inhibits
